Results reported in patent US7553979B2, “HSP90-inhibiting zearalanol compounds and methods of producing and using same” (Conforma Therapeutics Corporation, priority 2001, dated 2009).
Where two headings read alike, the source gives them in different places.

Test system: HER2
Experiment: HER2 inhibition assay (Her-2 degradation by flow cytometry in MCF-7 cells, as manifestation of HSP90 inhibition)
Type: cell-based
Procedure: MCF-7 cells are seeded in 24 well plates at a density of approximately 30,000 cells/well and allowed to grow for 16 hours in DMEM supplemented with 10% FBS. Drug (a compound as specified in Table I) is then added at a concentration range of 100 μM to 0.01 uM. Cells are incubated for an additional […]. Drug treated cells and untreated control cells are trypsinized, and incubated at room temperature for 15 minutes with anti Her-2 neu Ab conjugated with phycoerythrin (Becton Dickinson, San Jose Calif.; Cat no. 340552) at a concentration of 0.25 ug/ml, or non-specific control IgGl conjugated with phycoerytirin (Becton Dickinson, San Jose Calif.; Cat no. 340761). Samples were analyzed using a FACS Calibur flow cytometer (Becton Dickinson) equipped with Argon-ion laser that which emits 15 mW of 488 nm light for excitation of the phycoerythrin fluorochrome. 10,000 events were collected per sample. A fluorescence histogram was generated and the mean fluorescence intensity (mfi) of each sample was determined using Cellquest software. The background was defined as the mfi generated from cells incubated with control IgG, and was subtracted from each sample stained with the HER-2/neu Ab. Percent degradation of Her-2 was calculated as follows: % Her-2 degradation=(mfi HER-2 sample)/(mfi HER-2 untreated cells)×100
Compounds of the following formula (constituents as described in Table I) were acquired from Sigma Aldrich (Milwaukee, Wis.) and evaluated for HSP90 inhibition as manifested by HER2 degradation.
The following compounds were synthesized and evaluated for Her 2 degradation, with the results reflected in Table 3.

[1] = HER2 degradation, commercially acquired compounds (Sigma Aldrich), Table I, read-out: HER2 IC50
[2] = synthesized compounds, Table 3, read-out: IC50 (Her 2 degradation)

SMILES	IC50 [1]	IC50 [2]
C[C@H]1CCCC(=O)CCCCCc2cc(O)cc(O)c2C(=O)O1 [1 (zearalanone), zearalanone, reference compound]	13 µM	–
C[C@H]1CCCC(=O)CCC/C=C/c2cc(O)cc(O)c2C(=O)O1 [2 (zearalenone), zearalenone, reference compound]	7 µM	–
C[C@H]1CCC[C@H](O)CCCCCc2cc(O)cc(O)c2C(=O)O1 [3 (α-zearalanol), α-zearalanol, reference compound]	30 µM	–
C[C@H]1CCC[C@@H](O)CCCCCc2cc(O)cc(O)c2C(=O)O1 [4 (β-zearalanol), β-zearalanol, reference compound]	4 µM	–
C[C@H]1CCC[C@H](O)CCC/C=C/c2cc(O)cc(O)c2C(=O)O1 [5 (α-zearalenol), α-zearalenol, reference compound]	40 µM	–
C[C@H]1CCC[C@@H](O)CCC/C=C/c2cc(O)cc(O)c2C(=O)O1 [6 (β-zearalenol), β-zearalenol, reference compound]	1 µM	–
COc1cc(O)c2c(c1)OCCCCC(O)C(O)CCCCOC2=O (stereo not shown) [Example 1]	–	30 µM
COc1cc2c(c(OC(C)=O)c1)C(=O)OCCCCC=CCCCCO2 [Example 2.1, 1-acetoxy-3-methoxy-6,7,8,9,12,13,14,15-octahydro-5,16-dioxa-benzocyclopentadecen-17-one]	–	10 µM
COc1cc(OC(C)=O)c2c(c1C(C)=O)OCCCCC=CCCCCOC2=O [Example 2.2, 1-acetoxy-3-methoxy-4-acetyl-6,7,8,9,12,13,14,15-octahydro-5,16-dioxa-benzocyclopentadecen-17-one]	–	40 µM
COc1cc(O)c2c(c1)OCCCCC(=O)CCCCCOC2=O [Example 3.1, 1-hydroxy-3-methoxy-6,7,8,9,12,13,14,15-octahydro-11H-5,16-dioxa-benzocyclopentadecene-10,17-dione]	–	30 µM
COc1cc(O)c2c(c1)OCCCCCC(=O)CCCCOC2=O [Example 3.2, 1-Hydroxy-3-methoxy-6,7,8,9,12,13,14,15-octahydro-11H-5,16-dioxa-benzocyclopentadecene-11,17-dione]	–	16 µM
COc1cc(O)c2c(c1)OCCCC(O)C(O)CCCOC2=O (stereo not shown) [Example 4, 1,9,10-Trihydroxy-3-methoxy-6,7,8,9,10,11,12,13-octahydro-5,14-dioxa-benzocyclotridecen-15-one]	–	12 µM
COc1cc2c(c(OC(C)=O)c1)C(=O)OCCC/C=C\CCCO2 [Example 5.1, (9Z)-1-acetoxy-3-methoxy-6,7,8,11,12,13-hexahydro-5,14-dioxa-benzocyclotridecen-15-one]	–	13 µM
COc1cc2c(c(OC(C)=O)c1)C(=O)OCCC/C=C/CCCO2 [Example 5.2, (9E)-1-acetoxy-3-methoxy-6,7,8,11,12,13-hexahydro-5,14-dioxa-benzocyclotridecen-15-one]	–	15 µM
COc1cc2c(c(OC)c1)C(=O)OC(C)CCC(=O)CCC/C=C/2 (stereo not shown) [Example 6, 2,4-dimethoxy-7-methyl-8,9,12,13-tetrahydro-7H,11H-6-oxa-benzocyclotridecene-5,10-dione]	–	90 µM
COc1cc(O)c2c(c1)/C=C/CCCC(=O)CCC(C)OC2=O (stereo not shown) [Example 7, 4-hydroxy-2-methoxy-7-methyl-8,9,12,13-tetrahydro-7H,11H-6-oxa-benzocyclotridecene-5,10-dione]	–	60 µM
